Laboratory results: PubChem BioAssay AID1944 (The Scripps Research Institute Molecular Screening Center, 2009)
Calls of active or inactive are those of the source. How the calls were made is not given here.

Target: Replicase polyprotein 1ab (Severe acute respiratory syndrome coronavirus) (UniProt P0C6X7)
Assay: SARS-CoV PLpro inhibitor potency, dose response, counter-screen for SARS-CoV 3CLpro inhibitor project, biochemical, luminescence (AID 1944)
Settings: SARS-CoV PLpro enzymatic assay

Row | SMILES | IC50
1 | CCCCOc1ccc(C(=O)Oc2cccnc2)cc1 | 1.61 µM
2 | Cc1cc(NC(=O)COC(=O)C(Nc2ccc(C(F)(F)F)cc2Cl)C(C)C)no1 (stereo unspecified) | > 59.6 µM (inactive)
3 | COC(=O)c1ccc(OC(=O)CN2C(=O)c3ccccc3C2=O)cc1 | inactive
4 | CC1CCC2C(=O)N(c3cc(Cl)ccc3OC(=O)c3ccco3)C(=O)C2C1 (stereo unspecified) | > 59.6 µM (inactive)
5 | CC1(C)C2CC=C(/C=N/NC(=S)Nc3cccnc3)C1C2 (stereo unspecified) | > 59.6 µM (inactive)
6 | COc1cc(/C=N\NC(=O)Cn2nnc3ccccc32)cc(OC)c1OC | > 59.6 µM (inactive)
7 | Cc1ccc(C(=O)n2cnc3ccccc32)cc1C | 9.11 µM
8 | Nc1ncc(Br)cc1S(=O)(=O)Nc1cc(C(F)(F)F)cc(C(F)(F)F)c1 | > 59.6 µM (inactive)
9 | O=C(N/N=C\c1c(O)ccc2ccccc12)c1cncc(Br)c1 | 8.21 µM
10 | COc1ccc(N(C(=O)Cn2nnc3ccccc32)C2(C(=O)NC3CCCC3)CCCCC2)cc1 | > 59.6 µM (inactive)
11 | Cc1sc(NC(=O)CCl)c(C(=O)c2ccccc2)c1C | > 59.6 µM (inactive)
12 | CCn1nc(-c2ccccc2)nc2c(=O)n(C)c(=O)nc1-2 | 0.165 µM
13 | Cc1ccc(C2=NN(C(=O)CCl)C(c3ccco3)C2)o1 (stereo unspecified) | > 59.6 µM (inactive)
14 | CN(C)S(=O)(=O)c1cccc(NC(=O)CSc2cccc3cccnc23)c1 | > 59.6 µM (inactive)
15 | O=C(Oc1ccc(Br)cc1C(=O)/C=C/c1ccccc1F)c1ccco1 | > 59.6 µM (inactive)
16 | Cc1ccc(C(=O)Oc2ccc3c(c2)ncn3C)cc1 | 0.577 µM
17 | O=C(O)c1ccc2ncsc2c1 | 7.39 µM
18 | Cc1ccc(C(=O)O)cc1NC(=S)NC(=O)c1ccc(COc2ccccc2)cc1 | 2.48 µM
19 | Cc1ccc(/C=C/C(=O)c2cc(Br)ccc2OC(=O)c2ccco2)cc1 | > 59.6 µM (inactive)
20 | O=C(OCC(=O)N1c2ccccc2Sc2ccccc21)c1cccnc1 | > 59.6 µM (inactive)
21 | O=C1C(=O)N(CCCc2ccccc2)c2ccccc21 | inactive

Row | SMILES | IC50
22 | O=C1NC(=O)N(c2ccccc2F)C(=O)/C1=C/c1cn(CC(=O)N2CCOCC2)c2ccccc12 | > 59.6 µM (inactive)
23 | CCc1cccc(CC)c1N(COC)C(=O)Cn1nnc2ccccc21 | > 59.6 µM (inactive)
24 | Cc1cc(=O)oc2cc(NC(=O)Cc3ccccc3[N+](=O)[O-])ccc12 | > 59.6 µM (inactive)
25 | CC(C)C12CN(C(=O)c3ccccc3[N+](=O)[O-])CC(C(C)C)(CN(C(=O)c3ccccc3[N+](=O)[O-])C1)C2=O | > 59.6 µM (inactive)
26 | O=C(c1cc(=O)[nH]c2ccccc12)N1CCN(c2ccccc2)CC1 | > 59.6 µM (inactive)
27 | O=C(Oc1ccc(Cl)cc1N1C(=O)CCC1=O)c1ccco1 | > 59.6 µM (inactive)
28 | O=C(CCl)N(CCc1ccccc1)CCc1ccccc1 | inactive
29 | CCN(CC)C(=O)Cn1cc(/C=C2\C(=O)NC(=O)N(c3ccccc3F)C2=O)c2ccccc21 | > 59.6 µM (inactive)
30 | COc1ccc(C(=O)n2c(SC)nc3cc4c(cc32)OCCO4)cc1 | 2.46 µM
31 | O=C1C(=O)N(C/C=C/c2ccccc2)c2ccccc21 | > 59.6 µM (inactive)
32 | COc1ccc(N(Cc2cc(=O)[nH]c3ccccc23)C(=O)CCl)cc1 | > 59.6 µM (inactive)
33 | CCc1nc(N2CCN(C(=O)CCl)CC2)c2c3c(sc2n1)CC(C)CC3 (stereo unspecified) | > 59.6 µM (inactive)
34 | O=C(Cn1nnc2ccccc21)c1ccc(Br)cc1 | 2.3 µM
35 | CC(=O)Nc1ccc(N(C(=O)Cn2nnc3ccccc32)C(C(=O)NC2CCCC2)c2ccc(O)c(O)c2)cc1 (stereo unspecified) | > 59.6 µM (inactive)
36 | O=C(Cn1nnc2ccccc21)c1ccc(Cl)cc1 | 3.97 µM
37 | O=C(Oc1cccnc1)c1ccc(Cl)cc1 | 7.99 µM
38 | COc1ccc(C(=O)Oc2cccnc2)cc1 | > 59.6 µM (inactive)
39 | N#CCC(=O)N/N=C/c1c(-c2ccccc2)n(-c2ccccc2)c2ccccc12 | > 59.6 µM (inactive)
40 | COc1cc(C2CC(c3cccs3)=NN2C(=O)CCl)ccc1OC(F)F (stereo unspecified) | > 59.6 µM (inactive)
41 | O=C(c1cc(=O)[nH]c2ccccc12)N1CCN(c2cccc(C(F)(F)F)c2)CC1 | > 59.6 µM (inactive)
